Results: patent US20030171333A1, “Pharmaceutical composition containing at least a polymer combined with or conjugated to at least a phenylalkylcarboxylic acid salt, conjugate polymers and uses thereof” (priority 2000, published 2003)

Legend:
HUVEC cells = test: HUVEC cell proliferation (MTT), antiangiogenic activity in vitro; assay type: cell-based; settings: tested alone at concentrations equivalent to LS17-NaPAC, 72 hours
Protocol: Immortalized healthy endothelial cells (HUVEC) were seeded in a proportion of 10000 cells per well and per 100 μl of DMEM medium supplemented with 2% of FCS, in 96-well microplates (COSTAR®). The number of cells was determined after having prepared a standard range.
After culturing for 24 hours, the HUVEC cells were incubated with the various concentrations of the products to be tested prepared in DMEM medium containing 2% of FCS. The absorbance at the time the products were added was measured and compared to the standard range, so as to determine the number of cells.
After culturing for 72 hours, the cell supernatant is removed and 1 wash with PBS buffer containing calcium and magnesium is carried out. 100 μl of a solution of MTT is then added and the cells are incubated for 4 hours. After 4 hours of incubation, the MTT is removed and the crystals which have formed are dissolved with DMSO for 10 minutes with agitation. Absorbance is measured at 570 nm.
The concentration of 10 μg/ml of LS17-NaPAC tested is compared to a concentration of NaPA alone of 1.3216 μg/ml or to a concentration of 8.7 μg/ml of LS17-DMCB alone.

MCF-7ras tumors = test: Antitumor effect in vivo, tumors induced by inoculation of MCF-7ras cells in athymic mice; settings: NaPA 40 mg/kg, injected twice a week, after 7 weeks of treatment; P=0.049
Protocol: Fifty 3-week-old female athymic mice from the Laboratoire Harlan (Gannat, France) were kept in a temperature-controlled room and subjected to a cycle of light/dark alternating every 12 hours.
Cells of the MCF-7ras tumor line as described above in example 17 were cultured in a DMEM medium supplemented with 10% of FCS until 80% confluency was reached. After centrifugation, the cells were resuspended in DMEM supplemented with 10% of FCS.
Each mouse was then inoculated subcutaneously with these cells, in the proximity of the mammary gland, in a proportion of 5×10^6 cells per animal.
The volume of the tumors (V) was calculated in the following way:
V=(4/3)π(r1)^2)r2); r1 representing the smallest radius of the tumor and r2 the largest radius of the tumor.
Four weeks after inoculation, solutions of NaPA (40 mg/kg) or of dextran LS4 DMCB (150 mg/kg) or of a combination of NaPA (40 mg/kg) and dextran LS4 DMCB (150 mg/kg), prepared in 0.1 ml of sodium chloride, were injected into the mice, twice a week, for 7 weeks for the solutions of NaPA alone and of dextran LS4 DMCB alone. The injections of the combination of NaPA and dextran LS4 DMCB were stopped after six weeks.
For each solution tested, 10 mice chosen randomly from the 50 mice initially inoculated were subjected to the treatment. […]
The volume of each tumor was measured once a week. […]

[1] = tested on: 1205LU human melanoma cells; test: Antitumor effect in vivo, 1205LU human melanoma in athymic mice
Protocol: A group of 14 female athymic mice were subcutaneously inoculated, according to the protocol described above in example 17, with 1205LU human melanoma cells, in a proportion of 10^6 cells per animal.
For a period of five weeks, and at a rate of twice a week, a first group of 4 mice were given an injection of 100 μl of sodium chloride so as to serve as a control group, a second group of 4 mice were given an injection of LS17-NaPAC at a dose of 60 mg/kg/100 μl, and a third group of 6 mice were given an injection of NaPA at a dose of 6.9 mg/kg/100 μl.
The volume of each tumor was measured before the first injection and then once a week for the five weeks of treatment. It was calculated according to the equation defined above in example 17.
Furthermore, at the end of treatment, the mice were sacrificed so as to be able to determine the mass of each of the tumors. […] The treatment with NaPA alone at a dose of 6.9 mg/kg therefore appears to be nonsignificant, contrary to that with LS17-NaPAC at an equivalent dose of 60 mg/kg (p<0.005).

MCF-7ras cells [2] = test: Cell cycle analysis (BrdU/propidium iodide, FACScan); assay type: cell-based, human; settings: NaPA alone 10 mM, 48 hours
Protocol: To analyze the cell cycle, the cells were seeded in plates in a proportion of […] and per well in DMEM medium supplemented with 2% of FCS. After culturing for 24 hours, the various tested products were added.
After 72 hours, the MCF-7ras cells were incubated in the presence of BrdU for 4 hours. The cells were then washed with PBS buffer and fixed with 70% ethanol. […] The cells were then centrifuged and resuspended in a staining solution containing […] of propidium iodide (Boehringer Mannheim) for 10 min. The stained cells are then analyzed with a FACScan (Coulter).
Analysis of the distribution of MCF-7ras cells treated with NaPA alone (10 mM), the dextran LS4 DMCB alone (18.5 mM) and a combination thereof (NaPA: 10 mM; LS4 DMCB: 18.5 mM) in the various phases of the cell cycle was carried out after 48 hours of treatment.

MCF-7ras cells [3] = test: MTT growth assay with isobolic combination index; assay type: cell-based, human; settings: for NaPA Bc / NaPA Be: used alone
Protocol: (§1) Cells sampled in the exponential growth phase are seeded in 96-well plates in a proportion of 5 000 cells per 200 μl, this being in a DMEM medium supplemented with 2% of FCS, 1% of glutamine and 1% of sodium pyruvate. After incubation for 24 hours, the various concentrations of products to be tested are added in a proportion of 3 wells per concentration. A negative control is prepared without the addition of product.
(§2) After incubation for 72 hours, the cells are washed twice with a buffered saline solution and then 100 μl of MTT are added to each well. After 4 hours of incubation, 100 μl of DMSO are added to the wells before reading the plate 570 nm using a plate reader.
The percentage inhibition I is determined using the equation previously described. The net increase in untreated cells this time corresponds to the cell density contained in the control wells minus that of D0. As regards the net increase in treated cells, it corresponds to the treated cell density at D72 subtracted with that of D0.
MCF-7 cells transfected with the Ha-ras oncogene (MCF-7ras cells) were cultured in DMEM medium supplemented with 10% of FCS, 2 mM of L-glutamine, 1 mM of sodium pyruvate, 50 units/ml of penicillin and 50 μg/ml of streptomycin, at a temperature of 37° C. and in a humid atmosphere with 5% of CO2.
This was carried out in 96-well microplates under the same conditions as those given above in example 17.
In this example, the effects of the following products, alone or in combination, at various concentrations, were studied on MCF-7ras cell proliferation after incubation for 72 hours:
The percentage inhibition I was calculated as described above in example 17.
The effect of synergy between the dextrans DMCB7 or LS4 DMCB or LS17 and NaPA was calculated using the following isobolic equation (T. Mosmann, J. Immunol. Methods, 1983, 65, 55-63): […]
in which Ac and Bc correspond, respectively, to the concentration of dextran derivative and NaPA used in combination, and Ae and Be correspond to the concentration of each of these two compounds used alone and inducing the same effect; D is the combination index and Dm is the mean combination index. When D or Dm is less than 1, then the combination of the two products has a synergistic effect.
When the concentration of dextran derivative used alone (Ae), making it possible to obtain a percentage inhibition close to that which is obtained when the dextran derivative is used in combination with NaPA, is very high and such that it cannot be determined precisely, then the ratio Ac/Ae tends toward zero and, consequently, D=Bc/Be. Such concentrations of dextran derivatives (Ae) have been indicated in tables II, III and IV below as simply being greater than the concentration given for Ac.
Each experiment was repeated 3 times so as to be able to calculate the statistical significance (P) of the combination index (D or Dm) compared to the additive combination index for the effects (D=1) using the Student's t test.

MCF-7 cells [4] = test: Cell growth assay, cell counting on Coulter Counter ZM; assay type: cell-based, human
Protocol: The MCF-7 tumor line is a line of estrogen-sensitive epithelial cells originating from pleural metastases of an infiltrating ductule breast adenocarcinoma. They are cultured in Dulbecco's Modified Eagle Medium (DMEM), supplemented with 10% of fetal calf serum (FCS), 1% of glutamine and 1% of sodium pyruvate. The cells are stored in cryotubes in frozen form in liquid nitrogen. The cryotubes are partially thawed in a water bath at 37° C. 2 ml of complete culture medium are added and the cell suspension is then mixed. Culture flasks (COSTAR® T25) are prepared with culture medium beforehand. The cell suspension is added to the flasks and placed in an incubator at 37° C. with 5% of CO2.
Cells sampled in the exponential growth phase are seeded in 24-well plates in a proportion of 15000 cells per ml and per well, this being in a DMEM medium supplemented with 10% FCS, 1% of sodium pyruvate and 1% of glutamine.
After incubation for 24 hours, the various concentrations of products to be tested are added in the proportion of 4 wells per concentration. These products are diluted in a DMEM medium containing 2% of FCS, 1% of sodium pyruvate and 1% of glutamine, so as to obtain the desired concentrations. The negative control is prepared without the addition of product.
After incubation for 72 hours, the cells are detached and then counted using a Coulter Counter ZM® set on the parameters predefined for MCF-7 cells. The diameter (threshold) of detection is 5 for an attenuation of 32. The latter determines the number of particles of desired diameter contained in the sample. By taking into account the dilution made, the number of cells per ml of initial cell suspension is determined from this value.
%I=[1−(net increase in treated cells/net increase in untreated cells)]×100
The net increase in untreated cells corresponds to the number of cells contained in the control wells (DMEM medium containing 2% FCS) subtracted with the number of cells at D0 (number of cells at the time the products are added to the wells). […]

MCF-7 cells [5] = test: MTT growth assay; assay type: cell-based, human
Protocol: MTT (3-(4,5-dimethylthiazol-2-yl)-2,5-diphenyl-tetrazolium bromide) has the property that it can be reduced in alkaline medium, thus giving a colored compound, blue formazan. Mitochondria, by virtue of their membrane-bound dehydrogenases, are capable of carrying out this reduction. As a result, the number of functional mitochondria, and indirectly the number of live cells, can be quantified as a function of the intensity of the coloration.
as §1, §2
The percentage inhibition I is determined using the equation previously described. The net increase in untreated cells this time corresponds to the cell density contained in the control wells minus that of D0. […]

SMILES: O=C([O-])Cc1ccccc1.[Na+] [NaPA, sodium phenylacetate]
- inhibitory effect on HUVEC cell proliferation (HUVEC cells): do not appear to exhibit an inhibitory effect
- inhibition of tumor cell growth (MCF-7ras tumors): 59%
- mass of the tumors vs untreated mice ([1]; NaPA 6.9 mg/kg, end of treatment): no significant difference
- effect on tumor growth (tumor volume) ([1]; NaPA 6.9 mg/kg/100 μl, twice a week, five weeks): does not appear to have a significant effect
- distribution of cells in the phases of the cell cycle (MCF-7ras cells [2]): blocking of the cells in the G0/G1 phase
- inhibition of MCF-7ras cell proliferation (MCF-7ras cells [3]; NaPA alone at 30 and 40 mM, 72 h): 70%
- NaPA Bc (MCF-7ras cells [3]; same effect as DMCB7 0.05 mM + NaPA 5 mM (10% inhibition)): 1 mM
- NaPA Bc (MCF-7ras cells [3]; same effect as DMCB7 0.3 mM + NaPA 5 mM (20% inhibition)): 5 mM
- NaPA Bc (MCF-7ras cells [3]; same effect as DMCB7 1 mM + NaPA 5 mM (38% inhibition)): 10.7 mM
- NaPA Bc (MCF-7ras cells [3]; same effect as DMCB7 1.27 mM + NaPA 5 mM (42% inhibition)): 12 mM
- NaPA Bc (MCF-7ras cells [3]; same effect as DMCB7 1.7 mM + NaPA 5 mM (45% inhibition)): 13 mM
- NaPA Bc (MCF-7ras cells [3]; same effect as DMCB7 2 mM + NaPA 5 mM (50% inhibition)): 20 mM
- NaPA Bc (MCF-7ras cells [3]; same effect as DMCB7 5 mM + NaPA 5 mM (60% inhibition)): 29 mM
- NaPA Bc (MCF-7ras cells [3]; same effect as DMCB7 7 mM + NaPA 5 mM (70% inhibition)): 36 mM
- NaPA Bc (MCF-7ras cells [3]; same effect as LS4 3.7 mM + NaPA 0.75 mM (51.4% inhibition)): 22 mM
- NaPA Bc (MCF-7ras cells [3]; same effect as LS4 7.4 mM + NaPA 1.5 mM (54.8% inhibition)): 23 mM
- NaPA Bc (MCF-7ras cells [3]; same effect as LS4 14.8 mM + NaPA 3 mM (55% inhibition)): 23.3 mM
- NaPA Bc (MCF-7ras cells [3]; same effect as LS4 18.5 mM + NaPA 4 mM (60.2% inhibition)): 29.3 mM
- NaPA Be (MCF-7ras cells [3]; same effect as LS17 1.53 mM + NaPA 0.5 mM (0% inhibition)): 0 mM
- NaPA Be (MCF-7ras cells [3]; same effect as LS17 3 mM + NaPA 1 mM (16% inhibition)): 0.76 mM
- NaPA Be (MCF-7ras cells [3]; same effect as LS17 6 mM + NaPA 2 mM (17.3% inhibition)): 0.83 mM
- NaPA Be (MCF-7ras cells [3]; same effect as LS17 12 mM + NaPA 4 mM (17.3% inhibition)): 0.83 mM
- IC50 (MCF-7 cells [4]; Homo sapiens, MCF7, 72 h, read-out: IC50 (minimum dose causing arrest of proliferation of 50% of cells)): 5 mM
- inhibition of cell proliferation (MCF-7 cells [4]; concentrations greater than 30 mM, reflects cytotoxic effect): exceeds 100%
- concentration of NaPA alone giving this inhibition (MCF-7 cells [4]; same inhibition as maximum effect of NaPAC MF6): 50 mM
- effect on MCF-7 cells (MCF-7 cells [5]; concentrations less than 1 mM, MTT): does not appear to have a significant effect
- concentration of free NaPA giving this same inhibition (MCF-7 cells [5]; same inhibition (40 to 50%) as the combination): 5 mM
